IC50 data for 3 molecules are collected here from paper PMC3757929 (Molecular pharmaceutics, 2013).

Experiment [1] deals with T1, prostate specific membrane antigen (PSMA) (Homo sapiens, UniProt Q04609). Nature of the experiment: competitive binding on LNCaP cells with […]-GPI radioligand. In kind it is cell-based.
Experiment [2] concerns the target T1, prostate specific membrane antigen (PSMA). Described as above. In kind it is cell-based. The source holds these as a separate data set.

Read-outs that look alike come from different tables or passages of the source.

T1 sequence (Q04609 whole entry): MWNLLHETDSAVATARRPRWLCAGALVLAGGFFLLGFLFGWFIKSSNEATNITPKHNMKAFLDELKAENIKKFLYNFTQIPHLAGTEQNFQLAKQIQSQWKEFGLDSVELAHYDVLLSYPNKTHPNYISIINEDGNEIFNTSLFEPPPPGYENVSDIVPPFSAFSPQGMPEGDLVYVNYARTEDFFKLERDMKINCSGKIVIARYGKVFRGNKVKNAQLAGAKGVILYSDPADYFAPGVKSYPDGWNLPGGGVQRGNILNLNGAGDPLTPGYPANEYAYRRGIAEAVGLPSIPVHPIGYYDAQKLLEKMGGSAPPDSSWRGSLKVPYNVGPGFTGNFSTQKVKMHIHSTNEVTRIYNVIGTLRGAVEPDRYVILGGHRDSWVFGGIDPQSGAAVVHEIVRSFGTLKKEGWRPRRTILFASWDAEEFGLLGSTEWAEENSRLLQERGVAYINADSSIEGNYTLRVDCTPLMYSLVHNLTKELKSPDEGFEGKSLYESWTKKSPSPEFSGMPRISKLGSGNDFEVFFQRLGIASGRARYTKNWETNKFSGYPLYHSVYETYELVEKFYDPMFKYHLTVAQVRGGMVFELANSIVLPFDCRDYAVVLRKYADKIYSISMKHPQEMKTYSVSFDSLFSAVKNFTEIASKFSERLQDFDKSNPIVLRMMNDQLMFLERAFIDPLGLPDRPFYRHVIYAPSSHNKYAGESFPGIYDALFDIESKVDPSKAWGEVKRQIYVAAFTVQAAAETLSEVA

On to `NC(CCP(=O)(O)CC(CCC(=O)O)C(=O)O)C(=O)O` (racemic) [GPI, 2[(3-amino-3-carboxypropyl)(hydroxy)(phosphinyl)-methyl]pentane-1,5-dioic acid], for which the IC50 in experiment [1] amounted to 460 ± 13 nM.
The molecule `O=C(O)CCC(CP(=O)(O)CCC(NC(=O)CCC(C(=O)O)N1CCCN2CCN(CCCN(CC(=O)O)CC2)CC1)C(=O)O)C(=O)O` (racemic) [H2CBT1G] registered a concentration for half-maximal inhibition (IC50) in experiment [2] of 578 ± 81 nM.
The same measure, in the same setting: then `O=C(O)CCC(CP(=O)(O)CCC(NC(=O)CCC(C(=O)O)N1CCCN2CCN(CCCN(C(CCC(=O)NC(CCP(=O)(O)CC(CCC(=O)O)C(=O)O)C(=O)O)C(=O)O)CC2)CC1)C(=O)O)C(=O)O` (racemic) [H2CBT2G], with 129 ± 17 nM.

The IC50 is the concentration at which inhibition is half-maximal. A higher IC50 goes with a need for much substance.
